{"source": "patent US20260242390A1", "about": "“TOTAL SYNTHESES OF PORTIMINE A AND ANALOGUES THEREOF AS SMALL MOLECULE MODULATORS OF NMD3” (priority 2023, published 2026)", "key": {"RD": {"test_system": "RD", "experiment": "Broad cell line profiling, RD", "format": "cell-based", "details": "Human Rhabdomyosarcoma, read-out: PA IC50", "description": "(§1) • A panel of human and mouse cancer cell types used to assess the breadth of PA activity, including multiple therapy resistant metastatic mesenchymal tumor cell lines and primary glioblastoma patient-derived metastatic stem/tumor initiating cell populations."}, "HT-1080": {"test_system": "HT-1080", "experiment": "Broad cell line profiling, HT-1080", "format": "cell-based", "details": "HT-1080, Human Fibrosarcoma; read-out: PA IC50", "description": "as §1"}, "A673": {"test_system": "A673", "experiment": "Broad cell line profiling, A673", "format": "cell-based", "details": "A673, Human Ewings Sarcoma; read-out: PA IC50", "description": "as §1"}, "MD-MBA-231": {"test_system": "MD-MBA-231", "experiment": "Broad cell line profiling, MD-MBA-231", "format": "cell-based", "details": "Homo sapiens; MD-MBA-231, TNBC Breast Adenocarcinoma; read-out: PA IC50", "description": "as §1"}, "786-O": {"test_system": "786-O", "experiment": "Broad cell line profiling, 786-O", "format": "cell-based", "details": "Homo sapiens, 786-0, Renal Adenocarcinoma, read-out: PA IC50", "description": "as §1"}, "U87EGFRvIII": {"test_system": "U87EGFRvIII", "experiment": "Broad cell line profiling, U87EGFRvIII", "format": "cell-based", "details": "Homo sapiens, EGFRvIII Expressing Glioblastoma, read-out: PA IC50", "description": "as §1"}, "U118": {"test_system": "U118", "experiment": "Broad cell line profiling, U118", "format": "cell-based", "details": "Homo sapiens; U118, Glioblastoma; read-out: PA IC50", "description": "as §1"}, "GBM-F": {"test_system": "GBM-F", "experiment": "Broad cell line profiling, GBM-F", "format": "cell-based", "details": "Homo sapiens, Glioblastoma Cancer Stem Cell, read-out: PA IC50", "description": "as §1"}, "4T1": {"test_system": "4T1", "experiment": "Broad cell line profiling, 4T1", "format": "cell-based", "details": "4T1, Mouse Mammary Carcinoma; read-out: PA IC50", "description": "as §1"}, "Jurkat": {"test_system": "Jurkat", "experiment": "Washout experiment, Cell Titerglo cell viability", "format": "cell-based, human", "details": "for IC50: Homo sapiens, Jurkat 50 k per well"}, "Bcl2": {"test_system": "Bcl2", "experiment": "Bcl2 protein level in Jurkat cells", "format": "cell-based, human", "details": "6/12 hrs", "method": "(§2) FIG. 7. Portimine A targets NMD3 and prevents polysome formation. […] (A) Immunoblot showing reduced NMD3 levels in shNMD3 Jurkat and HeLa cells. […] Jurkat cells were treated with 12.5 nM of PA for 12 or 24 hours. Jurkat and HeLa cells were treated with 5 nM or 150 nM of PA for 24 hours. Data represents mean±SD of biologically replicated experiments (n=3). […] Cell lysates were fractionated by sucrose gradient (5-50%) and each fraction were analyzed by western blot. eIF6 levels increase in 60S subunit fraction and decrease in ribosome-free fractions after PA treatment. RPS6, a 40S and polysome subunits marker, is decreased in polysome fractions after PA treatment. Results are representative of three independent experiments. […] Relative protein levels in each fraction were normalized to the peak fraction of the indicated protein from the DMSO cells and plotted. Data represents mean±SD of biologically replicated experiments (n=3). Statistical analysis was performed using multiple unpaired Student t-test. * p≤0.05; ** p≤0.01; *** p≤0.005; **** p≤0.0001. Treatment condition: Jurkat (5 M per condition); Incubate cells (1 M/mL) with inhibitors for 6 hr, 12 hr and 24 hr, respectively.\n(§3) • 1) Portimine A and its functional analogs show stereo-selective acute toxicity in cancer cells (FIG. 1). […] (B) Structure of portimine related analogs: phenyl-portimine A (Ph-PA, 36) and epi-portimine A (ePA, 38). […]"}, "Jurkat cells": {"test_system": "Jurkat cells", "experiment": "Polysome profiling", "format": "cell-based, human", "details": "6 hours at 50 nM", "method": "as §2, §3"}, "[1]": {"details": "in vivo; cited from earlier work"}}, "note": "Read-outs that look alike come from different tables or passages of the source."}
{"smiles": "C=CC1=C[C@@H]2[C@@H]3O[C@]4(CC[C@H](O4)C(C)C[C@@H](O)C3=O)CC(O)C3=NCC[C@@]32CC1", "note": "(stereo partly shown) [PA, portimine A]", "values": [{"measurement": "IC50", "setting": "RD", "result": 0.56, "unit": "nM"}, {"measurement": "IC50", "setting": "HT-1080", "result": 0.83, "unit": "nM"}, {"measurement": "IC50", "setting": "A673", "result": 2.5, "unit": "nM"}, {"measurement": "IC50", "setting": "MD-MBA-231", "result": 0.68, "unit": "nM"}, {"measurement": "IC50", "setting": "786-O", "result": 1.8, "unit": "nM"}, {"measurement": "IC50", "setting": "U87EGFRvIII", "result": 3.4, "unit": "nM"}, {"measurement": "IC50", "setting": "U118", "result": 5.6, "unit": "nM"}, {"measurement": "IC50", "setting": "GBM-F", "result": 2.6, "unit": "nM"}, {"measurement": "IC50", "setting": "4T1", "result": 0.63, "unit": "nM"}, {"measurement": "IC50", "setting": "Jurkat; read-out: IC50 after 30 min exposure, washout at 30 min, total 36 hours", "result": "~5", "unit": "nM"}, {"measurement": "IC50", "setting": "Jurkat; washout at 4 hr, total 36 hours, read-out: IC50 after 4 hr exposure", "result": "~2", "unit": "nM"}, {"measurement": "exposure resulting in minimal loss of potency", "setting": "Jurkat; compound washout, cell-based target engagement", "result": "< 1", "unit": "h"}, {"measurement": "decrease in IC50 on removing compound after 30 min", "setting": "Jurkat; washout after 30 min, total 36 hours", "result": "~ 5 fold"}, {"measurement": "Bcl2 levels", "setting": "Bcl2", "result": "does not affect"}, {"measurement": "polysome profiling, protein translation", "setting": "Jurkat cells", "result": "protein translation inhibition"}, {"measurement": "LD50", "setting": "[1]", "result": 1.57, "unit": "mg/kg"}]}
